Measurements as given in PMC6366420, “Design and synthesis of 4-piperazinyl quinoline derived urea/thioureas for anti-breast cancer activity by a hybrid pharmacophore approach” (Journal of Enzyme Inhibition and Medicinal Chemistry, 2019).
Read-outs that look alike come from different tables or passages of the source.

Columns and labels:
[1] = test system: MDA-MB231; assay: SRB antiproliferative assay, MDA-MB231; type: cell-based, human; settings: read-out: GI50 MDA-MB231
Protocol: (§1) The human breast cancer cell lines MDA-MB468, MDA-MB231 and MCF-7 were purchased from ATCC and maintained in RPMI 1640 medium supplemented with 10% fetal bovine serum (Hyclone, Logan UT) and 2 mM L-glutamine. MCF10A and 184B5 immortalised breast cells were purchased from ATCC and maintained in mammary epithelial basal medium supplemented with an MEGM mammary epithelial singlequot kit (Cambrex). Cells were grown at 37 °C with 5% CO2, 95% air under the humidified conditions. Cell line authentication was carried out by Genetica DNA Laboratories (Burlington, NC) using a short tandem repeat profiling method (March 2015; July 2015; September 2016).
(§2) Cell cytotoxic effects were determined by a SRB-based protocol[2]^,[25].
(§3) The newly synthesised 4-piperazinylquinoline compounds (5–30) were evaluated for their antiproliferative effects using three breast cancer cell lines, for which the compounds were diluted to achieve seven different concentrations ranging from […]. Followed by 48 h incubation with the compound, cells were treated with sulforhodamine B (SRB) to measure their growth/viability (% of the untreated control) by spectrophotometer. The total cellular macromolecules levels known to accurately reflect by UV reading of SRB staining. […] The reference compounds CQ and cisplatin were included for the comparison.

[2] = test system: MCF7; assay: SRB antiproliferative assay, MCF7; type: cell-based, human; settings: read-out: GI50 MCF7
Protocol: as §1, §2, §3

[3] = test system: MDA-MB468; assay: SRB antiproliferative assay, MDA-MB468; type: cell-based, human; settings: read-out: GI50 MDA-MB468
Protocol: as §1, §2, §3

[4] = test system: breast cancer and non-cancer breast cell lines; assay: SRB antiproliferative comparison of breast cancer and non-cancer breast cell lines; type: cell-based, human; settings: for antigrowth effect against cancer versus non-cancer cells (in words): three breast cancer lines vs 184B5 and MCF10A
Protocol: as §1, §2, §3
(§4) We further assessed their antiproliferative effects on two non-cancer immortalised cell lines (184B5 and MCF10A). […] The antiproliferative effects of compound 23 on cancer cells are thus 7-fold (MDA-MB468 vs MCF10A) to 11-fold (MDA-MB231 vs 184B5) higher than matching non-cancer breast cells, which may indicate that compound 23 could potentially be safer than other compounds. Therefore, we examined it further to gain insights into its molecular mechanism of action.

[5] = test system: 184B5; assay: SRB antiproliferative assay, 184B5 non-cancer breast cells; type: cell-based, human; settings: read-out: GI50 184B5
Protocol: as §1, §2, §3, §4

[6] = test system: MCF10A; assay: SRB antiproliferative assay, MCF10A non-cancer breast cells; type: cell-based, human; settings: read-out: GI50 MCF10A
Protocol: as §1, §2, §3, §4

[7] = Homo sapiens, MDA-MB-231, 48 h, SRB, 48 h incubation, MDA-MB231 triple-negative breast cancer cells
[8] = Homo sapiens, SRB, 48 h incubation, MCF7 breast cancer cells
[9] = Homo sapiens, MDA-MB-468, 48 h, SRB, 48 h incubation, MDA-MB468 breast cancer cells
[10] = Homo sapiens, SRB, 48 h incubation, 184B5 non-cancer immortalised breast cells
[11] = Homo sapiens, MCF-10A, SRB, 48 h incubation, MCF10A non-cancer immortalised breast cells

| SMILES | GI50 [1, 7] | GI50 [2, 8] | melting point | GI50 [3, 9] | GI50 ([1]; Homo sapiens, MDA-MB-231, 48 h) | GI50 ([2]; Homo sapiens, MCF7, 48 h) | GI50 ([3]; Homo sapiens, MDA-MB-468, 48 h) | antigrowth effect against cancer versus non-cancer cells (in words) [4] | GI50 [5, 10] | GI50 [6, 11] | higher activity than the reference compounds cisplatin and CQ ([4]; breast cancer cell lines, GI50 comparison) | GI50 ([5]; Homo sapiens, 184B5, 48 h) | GI50 ([6]; Homo sapiens, MCF-10A, 48 h) | GI50 ([1]; SRB, 48 h incubation, MDA-MB231 triple-negative breast cancer cells) | GI50 ([2]; SRB, 48 h incubation, MCF7 breast cancer cells) | GI50 ([3]; SRB, 48 h incubation, MDA-MB468 breast cancer cells) | GI50 ([5]; SRB, 48 h incubation, 184B5 non-cancer immortalised breast cells) | GI50 ([6]; SRB, 48 h incubation, MCF10A non-cancer immortalised breast cells) |
| --- | --- | --- | --- | --- | --- | --- | --- | --- | --- | --- | --- | --- | --- | --- | --- | --- | --- | --- |
| O=C(Nc1cccc2ccccc12)N1CCN(c2ccnc3cc(Cl)ccc23)CC1 [Compound 9, 4-(7-Chloro-quinolin-4-yl)-piperazine-1-carboxylic acid naphthalen-1-ylamide] | 9.1 ± 1 µM | 9.4 ± 0.8 µM | 138 to 139 °C | 7.1 µM | – | – | – | much stronger activities against cancer than non-cancer cells | 21.8 ± 1 µM | 21.8 ± 1 µM | 4-8 fold | – | – | – | – | – | – | – |
| Cc1ccc(C)c(NC(=O)N2CCN(c3ccnc4cc(Cl)ccc34)CC2)c1 [Compound 6, 4-(7-Chloro-quinolin-4-yl)-piperazine-1-carboxylic acid (2,5-dimethyl-phenyl)-amide] | 50.6 ± 3.2 µM | 28.9 ± 1.4 µM | 118 to 119 °C | 35.5 ± 1.3 µM | – | – | – | higher activity against non-cancer cells than cancer cells | 19.8 ± 1 µM | 18.8 ± 1.3 µM | – | – | – | – | – | – | – | – |
| CCN(CC)CCCC(C)Nc1ccnc2cc(Cl)ccc12 (centres unmarked) [CQ, Chloroquine, reference compound] | – | – | – | – | 22.5 ± 1.4 µM | 38.4 ± 0.3 µM | 28.6 ± 0.2 µM | – | – | – | – | 76.1 ± 0.2 µM | 81.3 ± 1.4 µM | – | – | – | – | – |
| N.N.[Cl][Pt][Cl] [Cisplatin, reference compound] | – | – | – | – | – | – | – | – | – | – | – | – | – | 23.6 ± 0.2 µM | 25.8 ± 0.7 µM | 31 ± 0.3 µM | 25.5 ± 0.6 µM | 51.5 ± 0.6 µM |

Further lines, with some results ahead:

| GI50 [1, 7] | GI50 [2, 8] | melting point | GI50 [3, 9] | GI50 ([1]; Homo sapiens, MDA-MB-231, 48 h) | GI50 ([2]; Homo sapiens, MCF7, 48 h) | GI50 ([3]; Homo sapiens, MDA-MB-468, 48 h) | SMILES | antigrowth effect against cancer versus non-cancer cells (in words) [4] | GI50 [5, 10] | GI50 [6, 11] | higher activity than the reference compounds cisplatin and CQ ([4]; breast cancer cell lines, GI50 comparison) | GI50 ([5]; Homo sapiens, 184B5, 48 h) | GI50 ([6]; Homo sapiens, MCF-10A, 48 h) | GI50 ([1]; SRB, 48 h incubation, MDA-MB231 triple-negative breast cancer cells) | GI50 ([2]; SRB, 48 h incubation, MCF7 breast cancer cells) | GI50 ([3]; SRB, 48 h incubation, MDA-MB468 breast cancer cells) | GI50 ([5]; SRB, 48 h incubation, 184B5 non-cancer immortalised breast cells) | GI50 ([6]; SRB, 48 h incubation, MCF10A non-cancer immortalised breast cells) |
| --- | --- | --- | --- | --- | --- | --- | --- | --- | --- | --- | --- | --- | --- | --- | --- | --- | --- | --- |
| 7.7 ± 0.5 µM | 4 ± 0.3 µM | 132 to 133 °C | 5.1 ± 0.2 µM | – | – | – | S=C(Nc1c(Cl)cc(Cl)cc1Cl)N1CCN(c2ccnc3cc(Cl)ccc23)CC1 [Compound 21, 4-(7-Chloro-quinolin-4-yl)-piperazine-1-carbothioic acid (2,4,6-trichloro-phenyl)-amide] | comparable against cancer and non-cancer cells | 4.7 ± 0.3 µM | 6.8 ± 0.6 µM | – | – | – | – | – | – | – | – |
| 19.8 ± 1.1 µM | 30.1 ± 1.2 µM | 107 to 108 °C | 10 ± 0.9 µM | – | – | – | S=C(Nc1cccc2ccccc12)N1CCN(c2ccnc3cc(Cl)ccc23)CC1 [Compound 22, 4-(7-Chloro-quinolin-4-yl)-piperazine-1-carbothioic acid naphthalen-1-ylamide] | comparable against cancer and non-cancer cells | 17.8 ± 0.6 µM | 13.3 ± 1 µM | – | – | – | – | – | – | – | – |
| 20.6 ± 1.4 µM | 11 ± 0.6 µM | 146 to 147 °C | 57.6 ± 3.2 µM | – | – | – | O=C(Nc1ccccc1)N1CCN(c2ccnc3cc(C(F)(F)F)ccc23)CC1 [Compound 11, 4-(7-Trifluoromethyl-quinolin-4-yl)-piperazine-1-carboxylic acid phenylamide] | comparable against cancer and non-cancer cells | 12.2 ± 1.3 µM | 21.1 ± 1.6 µM | – | – | – | – | – | – | – | – |
| 18.7 ± 2.3 µM | 7 ± 0.7 µM | 165 to 166 °C | 11.8 ± 1.6 µM | – | – | – | FC(F)(F)c1ccc2c(N3CCN(C(=S)Nc4ccc(Cl)cc4)CC3)ccnc2c1 [Compound 27, 4-(7-Trifluoromethyl-quinolin-4-yl)-piperazine-1-carbothioic acid (4-chloro-phenyl)-amide] | comparable against cancer and non-cancer cells | 7.9 ± 0.6 µM | 9.2 ± 1 µM | – | – | – | – | – | – | – | – |
| 21.8 ± 1.5 µM | 16.6 ± 1.2 µM | – | 19.8 ± 0.8 µM | – | – | – | O=C(Nc1ccc(C(F)(F)F)cc1)N1CCN(c2ccnc3cc(Cl)ccc23)CC1 [Compound 7, 4-(7-Chloro-quinolin-4-yl)-piperazine-1-carboxylic acid (4-trifluoromethyl-phenyl)-amide] | higher activity against non-cancer cells than cancer cells | 4.7 ± 0.3 µM | 4.6 ± 0.3 µM | – | – | – | – | – | – | – | – |
